Reference: the supplement of paper PMC10307832

Key:
Test in all cases: relative viability (nuclei count vs DMSO), 5 days (fraction); higher = more cells survive
[1] = compound: COC1=CC=C(C=C1)CN2C=CC3=C2C=C(C=C3)C(=O)NO + O=C(CCCCCCC(=O)Nc1ccccc1)NO [Vorinostat] (partner 1 µM)
How it was run: (§1)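 One day after seeding in 1536-well plates, lung cancer cell lines were dosed by pin tool. Dosing was either single-drug or a fixed anchor-drug dose plus five library-drug doses (not always all listed) in √10 steps. After 5 days, nuclei were stained in one fix-and-stain step and counted on 4× images, and relative viability is the nuclei count of treated wells over that of vehicle wells, given as the median of duplicate plates.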

Veliparib + Luminespib = compound: C[C@]1(c2nc3c(C(N)=O)cccc3[nH]2)CCCN1 [Veliparib] + CCNC(=O)c1noc(-c2cc(C(C)C)c(O)cc2O)c1-c1ccc(CN2CCOCC2)cc1 [Luminespib] (partner 0.01 µM)
How it was run: as §1

Veliparib + Tozasertib = compound: C[C@]1(c2nc3c(C(N)=O)cccc3[nH]2)CCCN1 [Veliparib] + Cc1cc(Nc2cc(N3CCN(C)CC3)nc(Sc3ccc(NC(=O)C4CC4)cc3)n2)n[nH]1 [Tozasertib] (partner 0.1 µM)
How it was run: as §1

Veliparib + Olaparib = compound: C[C@]1(c2nc3c(C(N)=O)cccc3[nH]2)CCCN1 [Veliparib] + O=C(c1cc(Cc2n[nH]c(=O)c3ccccc23)ccc1F)N1CCN(C(=O)C2CC2)CC1 [Olaparib] (partner 8 µM)
How it was run: as §1

Cell Line | relative viability ([1]; first compound 0.08 µM) | relative viability ([1]; first compound 0.253 µM) | relative viability ([1]; first compound 0.8 µM) | relative viability ([1]; first compound 2.53 µM) | relative viability ([1]; first compound 8 µM) | relative viability (Veliparib + Luminespib; first compound 0.02 µM) | relative viability (Veliparib + Luminespib; first compound 0.06325 µM) | relative viability (Veliparib + Luminespib; first compound 0.2 µM) | relative viability (Veliparib + Luminespib; first compound 0.6325 µM) | relative viability (Veliparib + Luminespib; first compound 2 µM) | relative viability (Veliparib + Tozasertib; first compound 0.02 µM) | relative viability (Veliparib + Tozasertib; first compound 0.06325 µM) | relative viability (Veliparib + Tozasertib; first compound 0.2 µM) | relative viability (Veliparib + Tozasertib; first compound 0.6325 µM) | relative viability (Veliparib + Tozasertib; first compound 2 µM) | relative viability (Veliparib + Olaparib; first compound 0.02 µM) | relative viability (Veliparib + Olaparib; first compound 0.06325 µM) | relative viability (Veliparib + Olaparib; first compound 0.2 µM) | relative viability (Veliparib + Olaparib; first compound 0.6325 µM) | relative viability (Veliparib + Olaparib; first compound 2 µM)
NCI-H1437 | 0.684 | 0.766 | 0.881 | 0.891 | 1.01 | 0.978 | 1.1 | 1.07 | 1.1 | 1.09 | 0.384 | 0.438 | 0.43 | 0.406 | 0.399 | 0.688 | 0.624 | 0.616 | 0.653 | 0.661
LU99A | – | 0.504 | 0.581 | 0.418 | 0.352 | 0.284 | 0.25 | 0.191 | 0.228 | 0.237 | 0.328 | 0.271 | 0.239 | 0.245 | 0.279 | 0.252 | 0.266 | 0.257 | 0.265 | 0.31
NCI-H1755 | 0.694 | 0.884 | 0.777 | 0.876 | 0.725 | 0.551 | 0.553 | 0.41 | 0.357 | 0.36 | 0.557 | 0.514 | 0.569 | 0.571 | 0.552 | 0.821 | 0.798 | 0.877 | 0.881 | 0.915
LXF-289 | – | 0.815 | 0.813 | 0.797 | 0.668 | 0.652 | 0.712 | 0.759 | 0.545 | 0.601 | 0.194 | 0.193 | 0.233 | 0.208 | 0.216 | 1 | 1.04 | 1.01 | 0.986 | 1.16
NCI-H460 | 0.508 | 0.736 | 0.758 | 0.783 | 0.57 | 0.0408 | 0.0256 | 0.0384 | 0.0245 | 0.0352 | 0.512 | 0.438 | 0.334 | 0.478 | 0.308 | 0.427 | 0.316 | 0.489 | 0.434 | 0.425
NCI-H522 | – | 0.982 | 1.03 | 0.909 | 0.845 | 1.18 | 1.21 | 1.16 | 1.18 | 1.25 | 0.628 | 0.579 | 0.508 | 0.598 | 0.545 | 0.678 | 0.593 | 0.667 | 0.57 | 0.566
